Data reported in patent US20130072430A1, “METHODS FOR TREATMENT OR PROPHYLAXIS OF KIDNEY OR LIVER DYSFUNCTION” (NPS PHARMACEUTICALS, INC., priority 2010, published 2013).

Tested on: Human patients with short bowel syndrome
Assay: Example 1: kidney diagnostic biomarkers (urea nitrogen, creatinine, GFR) in short bowel syndrome patients, every four weeks for 24 weeks
Type: in vivo
Procedure: Human patients with short bowel syndrome were divided into three groups: a control group (16 total individuals) to receive placebo, an experimental group (35 total individuals) to receive teduglutide at 0.05 mg/kg/day throughout the study, and an experimental group (32 total individuals) to receive teduglutide at 0.1 mg/kg/day throughout the study. Patients were treated by subcutaneous injection of placebo or the appropriate dose of teduglutide. As individuals with short bowel syndrome are likely to experience associated liver and kidney disease, known biomarkers of liver and kidney function were monitored every four weeks, for 24 weeks. The liver biomarkers tested included total bilirubin, ALT and AST and ALP. The kidney biomarkers tested included urea nitrogen, creatinine and GFR. Before administration of placebo or teduglutide, diagnostic biomarker levels were tested to establish a baseline for each individual.
To visualize the effect of GLP-2 on the levels of the diagnostic biomarkers, the average change from baseline was calculated for the placebo and teduglutide treated groups for each visit after a baseline was established. The average change from baseline of each group is depicted in FIGS. […]. The numerical figures for each diaanostic biomarker at each time point are depicted in Table 1.
The raw data for this sorting is reproduced in Table 2 below.

[1] = Week 12, range >5%, teduglutide 0.1 mg/kg/day
[2] = Week 12, range −5%<= and <=5%, teduglutide 0.05 mg/kg/day
[3] = Week 12, range −5%<= and <=5%, teduglutide 0.1 mg/kg/day
[4] = Week 16, range <−5%, teduglutide 0.05 mg/kg/day
[5] = Week 16, range <−5%, teduglutide 0.1 mg/kg/day
[6] = Week 16, range >5%, teduglutide 0.05 mg/kg/day
[7] = Week 16, range >5%, teduglutide 0.1 mg/kg/day
[8] = Week 16, range −5%<= and <=5%, teduglutide 0.05 mg/kg/day
[9] = Week 16, range −5%<= and <=5%, teduglutide 0.1 mg/kg/day
[10] = Week 20, range <−5%, teduglutide 0.05 mg/kg/day
[11] = Week 20, range <−5%, teduglutide 0.1 mg/kg/day
[12] = Week 20, range >5%, teduglutide 0.05 mg/kg/day
[13] = Week 20, range >5%, teduglutide 0.1 mg/kg/day
[14] = Week 20, range −5%<= and <=5%, teduglutide 0.05 mg/kg/day
[15] = Week 20, range −5%<= and <=5%, teduglutide 0.1 mg/kg/day
[16] = Week 24, range <−5%, teduglutide 0.05 mg/kg/day
[17] = Week 24, range <−5%, teduglutide 0.1 mg/kg/day
[18] = Week 24, range >5%, teduglutide 0.05 mg/kg/day
[19] = Week 24, range >5%, teduglutide 0.1 mg/kg/day
[20] = Week 24, range −5%<= and <=5%, teduglutide 0.05 mg/kg/day
[21] = Week 24, range −5%<= and <=5%, teduglutide 0.1 mg/kg/day

CC[C@H](C)[C@H](NC(=O)[C@H](Cc1ccccc1)NC(=O)[C@H](CC(=O)O)NC(=O)[C@H](CCCNC(=N)N)NC(=O)[C@H](C)NC(=O)[C@H](C)NC(=O)[C@H](CC(C)C)NC(=O)[C@H](CC(N)=O)NC(=O)[C@H](CC(=O)O)NC(=O)[C@H](CC(C)C)NC(=O)[C@@H](NC(=O)[C@@H](NC(=O)[C@H](CC(N)=O)NC(=O)[C@H](CCSC)NC(=O)[C@H](CCC(=O)O)NC(=O)[C@H](CC(=O)O)NC(=O)[C@H](CO)NC(=O)[C@H](Cc1ccccc1)NC(=O)[C@H](CO)NC(=O)CNC(=O)[C@H](CC(=O)O)NC(=O)CNC(=O)[C@@H](N)Cc1c[nH]cn1)[C@@H](C)O)[C@@H](C)CC)C(=O)N[C@@H](CC(N)=O)C(=O)N[C@@H](Cc1c[nH]c2ccccc12)C(=O)N[C@@H](CC(C)C)C(=O)N[C@H](C(=O)N[C@@H](CCC(N)=O)C(=O)N[C@H](C(=O)N[C@@H](CCCCN)C(=O)N[C@H](C(=O)N[C@H](C(=O)N[C@@H](CC(=O)O)C(=O)O)[C@@H](C)O)[C@@H](C)CC)[C@@H](C)O)[C@@H](C)CC [teduglutide]
CREATININE (RATE BLANKED) change from baseline: patients in range, n(%) [1]: 17(53.1%) | GFR change from baseline: patients in range, n(%) [1]: 9(28.1%) | UREA NITROGEN change from baseline: patients in range, n(%) [1]: 14(43.8%) | CREATININE (RATE BLANKED) change from baseline: patients in range, n(%) [2]: 4(11.4%) | GFR change from baseline: patients in range, n(%) [2]: 5(14.3%) | UREA NITROGEN change from baseline: patients in range, n(%) [2]: 4(11.4%) | CREATININE (RATE BLANKED) change from baseline: patients in range, n(%) [3]: 4(12.5%) | GFR change from baseline: patients in range, n(%) [3]: 10(31.3%) | UREA NITROGEN change from baseline: patients in range, n(%) [3]: 3(9.4%) | CREATININE (RATE BLANKED) change from baseline: patients in range, n(%) [4]: 8(22.9%) | GFR change from baseline: patients in range, n(%) [4]: 7(20.0%) | UREA NITROGEN change from baseline: patients in range, n(%) [4]: 12(34.3%) | CREATININE (RATE BLANKED) change from baseline: patients in range, n(%) [5]: 10(31.3%) | GFR change from baseline: patients in range, n(%) [5]: 12(37.5%) | UREA NITROGEN change from baseline: patients in range, n(%) [5]: 9(28.1%) | CREATININE (RATE BLANKED) change from baseline: patients in range, n(%) [6]: 8(22.9%) | GFR change from baseline: patients in range, n(%) [6]: 11(31.4%) | UREA NITROGEN change from baseline: patients in range, n(%) [6]: 10(28.6%) | CREATININE (RATE BLANKED) change from baseline: patients in range, n(%) [7]: 12(37.5%) | GFR change from baseline: patients in range, n(%) [7]: 12(37.5%) | UREA NITROGEN change from baseline: patients in range, n(%) [7]: 9(28.1%) | CREATININE (RATE BLANKED) change from baseline: patients in range, n(%) [8]: 12(34.3%) | GFR change from baseline: patients in range, n(%) [8]: 10(28.6%) | UREA NITROGEN change from baseline: patients in range, n(%) [8]: 6(17.1%) | CREATININE (RATE BLANKED) change from baseline: patients in range, n(%) [9]: 8(25.0%) | GFR change from baseline: patients in range, n(%) [9]: 6(18.8%) | UREA NITROGEN change from baseline: patients in range, n(%) [9]: 12(37.5%) | CREATININE (RATE BLANKED) change from baseline: patients in range, n(%) [10]: 9(25.7%) | GFR change from baseline: patients in range, n(%) [10]: 10(28.6%) | UREA NITROGEN change from baseline: patients in range, n(%) [10]: 13(37.1%) | CREATININE (RATE BLANKED) change from baseline: patients in range, n(%) [11]: 7(21.9%) | GFR change from baseline: patients in range, n(%) [11]: 11(34.4%) | UREA NITROGEN change from baseline: patients in range, n(%) [11]: 12(37.5%) | CREATININE (RATE BLANKED) change from baseline: patients in range, n(%) [12]: 10(28.6%) | GFR change from baseline: patients in range, n(%) [12]: 10(28.6%) | UREA NITROGEN change from baseline: patients in range, n(%) [12]: 7(20.0%) | CREATININE (RATE BLANKED) change from baseline: patients in range, n(%) [13]: 13(40.6%) | GFR change from baseline: patients in range, n(%) [13]: 8(25.0%) | UREA NITROGEN change from baseline: patients in range, n(%) [13]: 11(34.4%) | CREATININE (RATE BLANKED) change from baseline: patients in range, n(%) [14]: 8(22.9%) | GFR change from baseline: patients in range, n(%) [14]: 7(20.0%) | UREA NITROGEN change from baseline: patients in range, n(%) [14]: 7(20.0%) | CREATININE (RATE BLANKED) change from baseline: patients in range, n(%) [15]: 9(28.1%) | GFR change from baseline: patients in range, n(%) [15]: 10(31.3%) | UREA NITROGEN change from baseline: patients in range, n(%) [15]: 6(18.8%) | CREATININE (RATE BLANKED) change from baseline: patients in range, n(%) [16]: 8(22.9%) | GFR change from baseline: patients in range, n(%) [16]: 8(22.9%) | CREATININE (RATE BLANKED) change from baseline: patients in range, n(%) [17]: 11(34.4%) | GFR change from baseline: patients in range, n(%) [17]: 6(18.8%) | UREA NITROGEN change from baseline: patients in range, n(%) [17]: 14(43.8%) | CREATININE (RATE BLANKED) change from baseline: patients in range, n(%) [18]: 9(25.7%) | GFR change from baseline: patients in range, n(%) [18]: 10(28.6%) | UREA NITROGEN change from baseline: patients in range, n(%) [18]: 7(20.0%) | CREATININE (RATE BLANKED) change from baseline: patients in range, n(%) [19]: 9(28.1%) | GFR change from baseline: patients in range, n(%) [19]: 14(43.8%) | UREA NITROGEN change from baseline: patients in range, n(%) [19]: 13(40.6%) | CREATININE (RATE BLANKED) change from baseline: patients in range, n(%) [20]: 9(25.7%) | GFR change from baseline: patients in range, n(%) [20]: 8(22.9%) | UREA NITROGEN change from baseline: patients in range, n(%) [20]: 2(5.7%) | CREATININE (RATE BLANKED) change from baseline: patients in range, n(%) [21]: 9(28.1%) | GFR change from baseline: patients in range, n(%) [21]: 9(28.1%) | UREA NITROGEN change from baseline: patients in range, n(%) [21]: 2(6.3%) | percent of the group experiencing a decrease in GFR greater than 5% versus placebo (both groups receiving teduglutide): always less than the percent of the group receiving placebo | creatinine levels, average change versus baseline (FIG. 9) (groups receiving teduglutide): remained stable or decreased slightly
